US20040006070A1, “Intraspinal continuous infusion of midazolam hydrochloride for the treatment of pain” (priority 2002, published 2004)
Where two headings read alike, the source gives them in different places.

Key:
[1] = system: neuropathic pain model in the sheep; assay: Neuropathic pain model in sheep, behavior monitoring (Observer 3.0) with visual analog pain score; format: in vivo
From the text: The neuropathic pain model in the sheep is created by placing four tight ligatures around the median, radial, or ulnar nerve (or a combination thereof) with 0-chromic gut suture. This method produces a chronic painful peripheral mononeuropathy which may be related to those conditions seen in humans with causalgia and reflex sympathetic dystrophy.
To evaluate animal behavior, the Observer 3.0 software (Noldus Information Technology, The Netherlands) was used to aid docmentation of a daily record of multiple traits. […] The behavior was then interpreted into a visual analog pain score (VAS), where 0 represents no pain and 100 represents severe pain.
Approximately three days prior to surgery each sheep will undergo a 15-minute baseline behavior evaluation. The observations made in this evaluation include, a computerized behavior software recording (the Observer) for 15minutes—gait monitoring—and recording of pain perception via visual analog scale-using the Observer. In some animals, recording of vital signs (blood pressure, heart rate, respirations per minute) will be performed using the Observer. Baseline values for pain perception are recorded via the mechanical stimulus device and/or behavior monitoring will also be performed at this time.
The sheep will be observed daily postoperatively. […] Observations of neuropathic pain development include changes in ambulation, alertness, appetite, urination, defecation, herding activity, body temperature and pain behaviors. This daily behavior is recorded utilizing the observer (an observational software system).

[2] = Physiological data: indirect blood pressure, pulse, rectal temperature, weight; format: in vivo, sheep; details: sheep #980 Dudley
From the text: Daily rectal temperatures were taken and any behavioral/motor changes were noted. Gait monitoring will be conducted as described below based on a four-grade scale for the evaluation of behavioral and motor changes. Grade 0: animal standing, sheep is able to rise and ambulate without any difficulty. Grade 1: Shuffling of either rear leg or slight limp; slight distortion of normal spinal axis. Grade 2: Loss of righting reflex in one of the rear legs, sheep able to stand without assistance, but with some difficulty. Grade 3: Inability to maintain standing posture; attempts to help animal stand are unsuccessful.
Indirect blood pressure, pulse recording, pain testing (mechanical stimulus device, cold and warm water baths see description in procedure) and weight were taken on days 1, 3, 7, 15, 22, 29, 36, and 43. Venous blood samples (15 ml drawn from the jugular vein with Vacutainer brand blood collection tubes) for complete blood count, electrolytes, and extended blood chemistry were drawn on days 1, 15, and 43 (mild procedure only light hand restraint necessary).

[3] = cited from earlier work
[4] = Toxicity in neuropathic pain sheep: clinical signs, necropsy, histopathology; format: in vivo; details: sheep #604 Clint
From the text: Animals will be observed daily for any signs of clinical toxicity such as limping and loss of appetite. At necropsy the spinal cord will be examined for any gross changes. Histopathologic evaluation will be performed on all animals after drug studies are complete. These examinations will detect any neurotoxicity that may be present due to the spinal infusion of midazolam.

[5] = sheep #980 Dudley, MS 1 mg per day, daily values
[6] = sheep #980 Dudley, MS 2 mg per day
[7] = sheep #980 Dudley, MS 3 mg per day, daily values
[8] = sheep #980 Dudley, MS 4 mg per day
[9] = sheep #980 Dudley, MS 5 mg per day
[10] = sheep #980 Dudley, MS 5 mg per day, daily values
[11] = sheep #980 Dudley, MS 6 mg per day
[12] = sheep #980 Dudley, MS 6.5 mg per day, daily values
[13] = sheep #980 Dudley, MDZ 2 mg per day
[14] = sheep #980 Dudley, MDZ 2 mg per day, daily values
[15] = sheep #980 Dudley, MDZ 3 mg per day
[16] = sheep #980 Dudley, MDZ 3 mg per day, daily values, first and second course
[17] = sheep #980 Dudley, MDZ 4 mg per day
[18] = sheep #980 Dudley, MDZ 5 mg per day, daily values
[19] = sheep #980 Dudley, MDZ 6 mg per day
[20] = sheep #980 Dudley, MDZ 6 mg per day, daily values

## CN1CC[C@]23c4c5ccc(O)c4O[C@H]2[C@@H](O)C=C[C@H]3[C@H]1C5.CN1CC[C@]23c4c5ccc(O)c4O[C@H]2[C@@H](O)C=C[C@H]3[C@H]1C5.O=S(=O)(O)O [MS]
[1]; sheep #980 Dudley, MS 1 mg per day
  Other behavior: Drink: 0.5%
[1]; [5]
  Laying down: 0%
  Other behavior: 0
[1]; [6]
  Eating: 0%
  Grind teeth: 1.39%
  Holding operated leg off the ground: 15.88%
  Holding unoperated leg off the ground: 0%
  Laying down: 0%
  Not bearing weight on operated leg: 64.74%
  Observe Operated leg: 0.19%
  Other behavior: 0
  Pain Score: 90%
  Standing: 17.34%
  Walking: 0.47%
[1]; sheep #980 Dudley, MS 3 mg per day
  Other behavior: Ruminating standing: 2.69%
[1]; [7]
  Holding unoperated leg off the ground: 0%
  Laying down: 0%
  Other behavior: 0
  Pain Score: 85%
  Standing: 0%
[1]; [8]
  Eating: 4.72%
  Grind teeth: 0%
  Holding operated leg off the ground: 5.2%
  Holding unoperated leg off the ground: 0%
  Laying down: 0%
  Not bearing weight on operated leg: 69.53%
  Observe Operated leg: 0%
  Other behavior: Ruminating standing: 15.2%
  Pain Score: 83%
  Standing: 0%
  Walking: 5.36%
[1]; [9]
  Other behavior: Bleating: 0.98%
  Other behavior: Eating lying: 0.7%,
  Other behavior: Pulling wool: 0.28%,
  Other behavior: pawing ground: 0.85%
[1]; [10]
  Grind teeth: 0%
  Standing: 0%
[1]; [11]
  Eating: 0%
  Grind teeth: 0%
  Holding operated leg off the ground: 9.77%
  Holding unoperated leg off the ground: 0.52%
  Laying down: 43.57%
  Not bearing weight on operated leg: 35.43%
  Observe Operated leg: 0.66%
  Other behavior: 0
  Pain Score: 80%
  Standing: 0.99%
  Walking: 9.07%
[1]; sheep #980 Dudley, MS 6.5 mg per day
  Other behavior: Eating lying: 9.31%
[1]; [12]
  Holding unoperated leg off the ground: 0%
  Other behavior: 0
[2]; MS 2 mg per day
  Resp per min.: 22 per min.
[2]; MS 4 mg per day
  Resp per min.: 64 per min.
[2]; MS 6 mg per day
  Resp per min.: 64 per min.

## COc1ccc2c3c1O[C@H]1C(=O)CC[C@@]4(O)[C@@H](C2)N(C)CC[C@]314 [Oxycodone]
[3]; route IT
  approximate equipotent dose, IT: 10
[3]; route IV
  approximate equipotent dose, IV: 200
[3]; route PO
  approximate equipotent dose, PO: 600

## Cc1ncc2n1-c1ccc(Cl)cc1C(c1ccccc1F)=NC2 [MDZ]
[1]; [13]
  Other behavior: Defaecation: 0.65%
  Other behavior: Eating lying: 1.69%
  Other behavior: Ruminating laying down: 98.28%,
  Other behavior: Ruminating standing: 0.48%
[1]; [14]
  Grind teeth: 0%
  Other behavior: 0
[1]; [15]
  Other behavior: Defaecation: 0.49%
  Other behavior: Drinking: 0.6%
  Other behavior: Eating lying: 1.14%
[1]; [16]
  Grind teeth: 0%
  Holding unoperated leg off the ground: 0%
  Other behavior: 0
[1]; [17]
  Eating: 36.49%
  Grind teeth: 0%
  Holding operated leg off the ground: 2.78%
  Holding unoperated leg off the ground: 0.36%
  Laying down: 0%
  Not bearing weight on operated leg: 29.65%
  Observe Operated leg: 1.51%
  Other behavior: Bleating: 0.76%
  Pain Score: 50%
  Standing: 0.52%
  Walking: 1.09%
[1]; [18]
  Grind teeth: 0%
  Holding unoperated leg off the ground: 0%
  Laying down: 0%
  Observe Operated leg: 0%
  Pain Score: 85%
  Standing: 0%
[1]; [19]
  Other behavior: Defaecation: 0.94%
  Other behavior: Eating lying: 0.21%
  Other behavior: Pulling wool: 0.26%,
[1]; [20]
  Grind teeth: 0%
  Holding unoperated leg off the ground: 0%
  Laying down: 0%
  Other behavior: 0
  Standing: 0%
[2]; MDZ 4 mg per day
  Resp per min.: 58 per min.

## CN1CC[C@]23c4c5ccc(O)c4O[C@H]2[C@@H](O)C=C[C@H]3[C@H]1C5.O=S(=O)(O)O [morphine, morphine sulfate]
[3]; in vivo, iv
  approximate equipotent dose, IV: 200
[3]; in vivo, po
  approximate equipotent dose, PO: 600
[3]; in vivo
  approximate equipotent dose, IT: 10
[1]; Sheep #604 Clint, 6 mg Morphine per day intrathecal, first infusion period, Dec. 7, 2001, day of study 0
  Pain Score: 60%
[1]; Sheep #604 Clint, 6 mg Morphine per day intrathecal, first infusion period, Dec. 8, 2001, day of study 1
  Pain Score: 60%
[1]; Sheep #604 Clint, 6 mg Morphine per day intrathecal, first infusion period, Dec. 9, 2001, day of study 2
  Pain Score: 60%
[1]; Sheep #604 Clint, 6 mg Morphine per day intrathecal, first infusion period, Dec. 11, 2001, day of study 4
  Pain Score: 45%
[1]; Sheep #604 Clint, 6 mg Morphine per day intrathecal, first infusion period, Dec. 12, 2001, day of study 5
  Pain Score: 30%
[1]; Sheep #604 Clint, 6 mg Morphine per day intrathecal, first infusion period, Dec. 13, 2001, day of study 6
  Pain Score: 35%
[1]; Sheep #604 Clint, 6 mg Morphine per day intrathecal, first infusion period, Dec. 14, 2001, day of study 7
  Pain Score: 40%
[1]; Sheep #604 Clint, 6 mg Morphine per day intrathecal, first infusion period, Dec. 15, 2001, day of study 8
  Pain Score: 50%
[1]; Sheep #604 Clint, 6 mg Morphine per day intrathecal, first infusion period, Dec. 16, 2001, day of study 9
  Pain Score: 40%
[1]; Sheep #604 Clint, 6 mg Morphine per day intrathecal, first infusion period, Dec. 17, 2001, day of study 10
  Pain Score: 33%
[1]; Sheep #604 Clint, 6 mg Morphine per day intrathecal, first infusion period, Dec. 18, 2001, day of study 11
  Pain Score: 35%
[1]; Sheep #604 Clint, 6 mg Morphine per day intrathecal, first infusion period, Dec. 19, 2001, day of study 12
  Pain Score: 35%
[1]; Sheep #604 Clint, 6 mg Morphine per day intrathecal, first infusion period, Dec. 20, 2001, day of study printed 0, changed to saline at 1:30 PM
  Pain Score: 33%
[1]; Sheep #604 Clint, 6 mg Morphine per day intrathecal, second infusion period after saline, Dec. 29, 2001, day of study 1
  Pain Score: 50%
[1]; Sheep #604 Clint, 6 mg Morphine per day intrathecal, second infusion period after saline, Dec. 30, 2001, day of study 2
  Pain Score: 40%
[1]; Sheep #604 Clint, 6 mg Morphine per day intrathecal, second infusion period after saline, Dec. 31, 2001, day of study 3
  Pain Score: 38%
[1]; Sheep #604 Clint, 6 mg Morphine per day intrathecal, second infusion period after saline, Jan. 1, 2002, day of study 4
  Pain Score: 40%
[1]; Sheep #604 Clint, 6 mg Morphine per day intrathecal, second infusion period after saline, Jan. 2, 2002, day of study 5
  Pain Score: 30%
[1]; Sheep #604 Clint, 6 mg Morphine per day intrathecal, second infusion period after saline, Jan. 3, 2002, day of study 6
  Pain Score: 33%
[1]; Sheep #604 Clint, 6 mg Morphine per day intrathecal, second infusion period after saline, Jan. 4, 2002, day of study 7
  Pain Score: 30%
[1]; Sheep #604 Clint, 6 mg Morphine per day intrathecal, second infusion period after saline, Jan. 5, 2002, day of study 8
  Pain Score: 30%
[1]; Sheep #604 Clint, 6 mg Morphine per day intrathecal, second infusion period after saline, Jan. 6, 2002, day of study 9
  Pain Score: 30%
[1]; Sheep #604 Clint, 6 mg Morphine per day intrathecal, second infusion period after saline, Jan. 7, 2002, day of study 10
  Pain Score: 30%
[1]; Sheep #604 Clint, 6 mg Morphine per day intrathecal, second infusion period after saline, Jan. 8, 2002, day of study 11
  Pain Score: 30%
[1]; Sheep #604 Clint, 6 mg Morphine per day intrathecal, second infusion period after saline, Jan. 9, 2002, day of study 12, pump then refilled with saline at 9:44 AM
  Pain Score: 15%
[1]; sheep #604 Clint, first 13 days of infusion at 6 mg/day
  average pain score: 43%
[1]; sheep #604 Clint, later infusions begun with either morphine or saline
  average pain scores: 30-50%
[1]; sheep #980 Dudley, 1 mg/day gradually increased to 6 mg/day
  average pain score: 76%
[1]; sheep #980 Dudley, 6.5 mg/day after 13 days of treatment
  Pain Score: 20%
[4]; intrathecal
  clinical behavior during therapy: restlessness, pain behaviors such as biting itself near the area of the catheter tip, and frequently laying down
[4]; lesion 0.8 cm (L)×0.5 cm (W)×0.3 cm (Depth)
  necropsy, spinal cord: cavitated lesion in the spinal cord in front of the catheter tip
